The IC50 is the concentration at which inhibition is half-maximal.

The target of this assay is T1, human kinase Mps-1 (Homo sapiens, UniProt P33981).
T1 construct: N-terminally GST-tagged human full length recombinant Mps-1 kinase; GST (N); purchased Invitrogen, Karslruhe, Germany PV4071
T1 sequence (P33981 1-857): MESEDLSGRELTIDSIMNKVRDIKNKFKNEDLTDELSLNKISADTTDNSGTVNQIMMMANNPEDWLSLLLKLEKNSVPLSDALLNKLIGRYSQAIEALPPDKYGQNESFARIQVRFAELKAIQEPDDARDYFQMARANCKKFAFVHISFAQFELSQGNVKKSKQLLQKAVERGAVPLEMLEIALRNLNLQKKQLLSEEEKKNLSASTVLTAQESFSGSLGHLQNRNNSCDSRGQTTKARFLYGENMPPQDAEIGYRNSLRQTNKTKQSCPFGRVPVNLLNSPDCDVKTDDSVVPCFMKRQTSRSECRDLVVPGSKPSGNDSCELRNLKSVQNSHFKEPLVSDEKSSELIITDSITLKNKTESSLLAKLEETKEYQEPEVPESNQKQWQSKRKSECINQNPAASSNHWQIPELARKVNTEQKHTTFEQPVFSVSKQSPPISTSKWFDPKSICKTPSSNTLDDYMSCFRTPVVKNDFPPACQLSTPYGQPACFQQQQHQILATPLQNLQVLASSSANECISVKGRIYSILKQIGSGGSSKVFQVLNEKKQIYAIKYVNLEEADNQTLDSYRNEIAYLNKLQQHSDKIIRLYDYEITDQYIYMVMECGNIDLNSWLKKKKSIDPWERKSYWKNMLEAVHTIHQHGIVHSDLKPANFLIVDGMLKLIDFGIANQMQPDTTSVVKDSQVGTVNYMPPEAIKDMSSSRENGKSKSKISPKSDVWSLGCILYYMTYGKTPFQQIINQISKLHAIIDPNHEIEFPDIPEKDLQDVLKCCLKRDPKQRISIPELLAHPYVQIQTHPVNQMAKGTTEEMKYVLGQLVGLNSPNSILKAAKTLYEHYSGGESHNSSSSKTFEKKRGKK
Kind of assay: Mps-1 kinase assay (TR-FRET). The class given is biochemical. As to conditions: N-terminally GST-tagged human full length recombinant Mps-1; 10 μM ATP; 1 μM peptide substrate; 60 min at 22° C. The method in brief:
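Next, Eu-labelled anti-phospho(Ser/Thr) antibody and SA-XLent bind for 1 h at 22° C. Finally, energy transfer quantifies phosphorylated product.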
(In TR-FRET formats the signal depends on donor and acceptor labels being close together.)
Turning to `COc1ccc(Oc2cc(NCC(F)F)c3ncc(-c4ccc(C(=O)NC5CC5)c(C)c4)n3c2)cc1` [Example 162, N-cyclopropyl-4-{8-[(2,2-difluoroethyl)amino]-6-(4-methoxyphenoxy)imidazo[1,2-a]pyridin-3-yl}-2-methylbenzamide], the concentration for half-maximal inhibition (IC50) worked out at 8.6 nM.
The same measure for `Cc1cc(-c2cnc3c(NCC(F)F)cc(Oc4cccc(F)c4F)cn23)ccc1C(=O)NC1CC1` [Example 163, N-cyclopropyl-4-{8-[(2,2-difluoroethyl)amino]-6-(2,3-difluorophenoxy)imidazo[1,2-a]pyridin-3-yl}-2-methylbenzamide]: 1.3 nM; for `Cc1ccc(F)cc1Oc1cc(NCC(F)F)c2ncc(-c3ccc(C(=O)NC4CC4)c(C)c3)n2c1` [Example 164, N-cyclopropyl-4-{8-[(2,2-difluoroethyl)amino]-6-(5-fluoro-2-methylphenoxy)imidazo[1,2-a]pyridin-3-yl}-2-methylbenzamide]: 13.8 nM; for `Cc1cc(-c2cnc3c(NCC(F)F)cc(Oc4cc(F)ccc4F)cn23)ccc1C(=O)NC1CC1` [Example 165, N-cyclopropyl-4-{8-[(2,2-difluoroethyl)amino]-6-(2,5-difluorophenoxy)imidazo[1,2-a]pyridin-3-yl}-2-methylbenzamide]: 48.3 nM.
Next, `COc1ccc(Oc2cc(NCC(F)F)c3ncc(-c4ccc(C(=O)NC5CC5)c(C)c4)n3c2)cc1F` [Example 167, N-cyclopropyl-4-{8-[(2,2-difluoroethyl)amino]-6-(3-fluoro-4-methoxyphenoxy)imidazo[1,2-a]pyridin-3-yl}-2-methylbenzamide]: 6.2 nM.
Next, `COCCNc1cc(Oc2cccc(F)c2)cn2c(-c3ccc(C(=O)NC4CC4)c(C)c3)cnc12` [Example 169, N-cyclopropyl-4-{6-(3-fluorophenoxy)-8-[(2-methoxyethyl)amino]imidazo[1,2-a]pyridin-3-yl}-2-methylbenzamide]: 21.7 nM; `COCCNc1cc(Oc2ccccc2C)cn2c(-c3ccc(C(=O)NC4CC4)c(C)c3)cnc12` [Example 170]: 176 nM; `COCCNc1cc(Oc2ccc(F)c(F)c2)cn2c(-c3ccc(C(=O)NC4CC4)c(C)c3)cnc12` [Example 171, N-cyclopropyl-4-{6-(3,4-difluorophenoxy)-8-[(2-methoxyethyl)amino]imidazo[1,2-a]pyridin-3-yl}-2-methylbenzamide]: 115 nM.
On to `COCCNc1cc(Oc2cc(F)ccc2C)cn2c(-c3ccc(C(=O)NC4CC4)c(C)c3)cnc12` [Example 172], for which the half-maximal inhibitory concentration (IC50) came to 77.8 nM.
Next, `COCCNc1cc(Oc2cccc(F)c2F)cn2c(-c3ccc(C(=O)NC4CC4)c(C)c3)cnc12` [Example 173, N-cyclopropyl-4-{6-(2,3-difluorophenoxy)-8-[(2-methoxyethyl)amino]imidazo[1,2-a]pyridin-3-yl}-2-methylbenzamide]: 8.2 nM.
The same measure for `COCCNc1cc(C(=O)c2cc(F)ccc2O)cn2c(-c3ccc(C(=O)NC4CC4)c(C)c3)cnc12` [Example 174, N-cyclopropyl-4-{6-(5-fluoro-2-hydroxybenzoyl)-8-[(2-methoxyethyl)amino]imidazo[1,2-a]pyridin-3-yl}-2-methylbenzamide]: 816 nM.
Next, `Cc1cc(-c2cnc3c(NCCC(F)(F)F)cc(Oc4cc(F)ccc4O)cn23)ccc1C(=O)NC1CC1` [Example 175, N-cyclopropyl-4-{6-(5-fluoro-2-hydroxyphenoxy)-8-[(3,3,3-trifluoropropyl)amino]imidazo[1,2-a]pyridin-3-yl}-2-methylbenzamide]: 3 nM; `Cc1cc(-c2cnc3c(NCCC(F)(F)F)cc(Oc4cccc(F)c4O)cn23)ccc1C(=O)NC1CC1` [Example 176, N-cyclopropyl-4-{6-(3-fluoro-2-hydroxyphenoxy)-8-[(3,3,3-trifluoropropyl)amino]imidazo[1,2-a]pyridin-3-yl}-2-methylbenzamide]: 1.8 nM.
For the compound `Cc1cc(-c2cnc3c(NCCC(F)(F)F)cc(Oc4cncc(F)c4)cn23)ccc1C(=O)NC1CC1` [Example 177, N-cyclopropyl-4-{6-[(5-fluoropyridin-3-yl)oxy]-8-[(3,3,3-trifluoropropyl)amino]imidazo[1,2-a]pyridin-3-yl}-2-methylbenzamide], the 50% inhibitory concentration (IC50) was 20.4 nM.
Next, `COc1ncc(Oc2cc(NCCC(F)(F)F)c3ncc(-c4ccc(C(=O)NC5CC5)c(C)c4)n3c2)cc1F` [Example 178, N-cyclopropyl-4-{6-[(5-fluoro-6-methoxypyridin-3-yl)oxy]-8-[(3,3,3-trifluoropropyl)amino]imidazo[1,2-a]pyridin-3-yl}-2-methylbenzamide]: 2.2 nM; “N-cyclopropyl-4-{8-[(2,2-difluoroethyl)amino]-6-(2,5-difluorophenoxy)imidazo[1,2-a]pyridin-3-yl}-2-methylbenzamide [Example 166]”: 4.6 nM; “tert-butyl {3-[4-(cyclopropylcarbamoyl)-3-methylphenyl]-6-(2-hydroxybenzoyl)imidazo[1,2-a]pyridin-8-yl}(2,2-difluoroethyl)carbamate [Example 168]”: 279 nM.

Values taken from patent US20140255392A1 (BAYER INTELLECTUAL PROPERTY GMBH, priority 2011, published 2014).
